Literature values as cited in PMC12285096, “Tirzepatide mitigates Stroke-Induced Blood-Brain barrier disruption by modulating Claudin-1 and C/EBP-α pathways” (Molecular Medicine, 2025).

Details: cited from earlier work; for BBB penetration (Kp, brain): limited BBB penetration of GLP-1 analogs, ref Rhea et al. [2024], Lee et al. [2023], Hunter and Hölscher [2012], Secher et al. [2014]

Row | Substance | BBB penetration (Kp, brain) | Brain-to-plasma ratio (Kp, brain) (in vivo)
1 | semaglutide | 0.02–0.05 | –
2 | liraglutide | 0.02–0.05 | 0.03 ± 0.01
